This is an account of results in article PMC10220492, “Investigating the mechanism of photoisomerization in jellyfish rhodopsin with the counterion at an atypical position” (The Journal of Biological Chemistry, 2023).

For this assay, the target named is T1, JelRh (box jellyfish rhodopsin) (Carybdea rastonii, UniProt B6F0Y5).
T1 construct: gene cubop; opsin gene in pFastBac HT vector with C-terminal rho 1D4 tag (TETSQVAPA), Sf9 baculovirus expression, DDM-solubilized, 1D4-purified, wild type reconstituted in PC liposomes
T1 sequence (B6F0Y5 1-330): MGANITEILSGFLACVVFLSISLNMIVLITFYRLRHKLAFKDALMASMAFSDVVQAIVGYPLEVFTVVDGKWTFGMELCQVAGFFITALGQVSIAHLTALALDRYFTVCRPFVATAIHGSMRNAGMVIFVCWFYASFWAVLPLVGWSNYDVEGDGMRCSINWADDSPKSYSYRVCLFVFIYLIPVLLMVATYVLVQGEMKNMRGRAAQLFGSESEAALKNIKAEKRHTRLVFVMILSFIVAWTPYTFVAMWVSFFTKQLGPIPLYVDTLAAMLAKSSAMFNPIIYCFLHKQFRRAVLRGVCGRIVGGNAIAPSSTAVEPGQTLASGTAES
In words: low-temperature UV-visible and FTIR difference spectroscopy of reconstituted pigment. Type of assay: binding. To be noted: 77 K.

With `CC1=C(/C=C/C(C)=C\C=C\C(C)=C\C=O)C(C)(C)CCC1` [9-cis-retinal], the “low-temperature UV-visible and FTIR difference spectroscopy of reconstituted pig” value (covalent (protonated Schiff base), 9-cis bound form (Iso-JelRh) made in situ by >520 nm illumination of Batho) was “confirming the formation of the 9-cis bound form (so-called Iso-rhodopsin or Iso)”.
For `CC1=C(/C=C/C(C)=C/C=C\C(C)=C\C=O)C(C)(C)CCC1` [11-cis-retinal], the “low-temperature UV-visible and FTIR difference spectroscopy of reconstituted pig” value (covalent (protonated Schiff base), PC liposomes, hydrated film, 11-cis-retinal added at 30 uM to membranes) is “The sample after membrane preparation was reconstituted with 11-cis-retinal overnight”.
On to `CC1=C(/C=C/C(C)=C/C=C/C(C)=C/C=O)C(C)(C)CCC1` [all-trans-retinal], for which the “low-temperature UV-visible and FTIR difference spectroscopy of reconstituted pig” value (covalent (Schiff base), all-trans bound Batho intermediate made in situ by 500 nm illumination) is “the isomerization from 11-cis to all-trans retinal in JelRh is similar to that of BovRh”.
